From patent US7732449B2, “Inhibitors of cathepsin S” (IRM LLC, priority 2003, dated 2010) come the findings set out here.

What all share (assay type): biochemical
Assay [1] deals with Cathepsin L (Homo sapiens, UniProt P07711). Put plainly: Cathepsin L inhibition, fluorogenic peptide substrate kinetic assay (selectivity). Conditions: ratio of cathepsin L inhibition constant to cathepsin S inhibition constant.
Assay [2] deals with Cathepsin S (Homo sapiens, UniProt P25774). Put plainly: Cathepsin S inhibition, fluorogenic peptide substrate kinetic assay.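 Also: cleavage rate of a coumarin-labelled peptide substrate (50 µM) read as fluorescence increase at Ex 380 nm and Em 450 nm, relative to inhibitor-free control reactions.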
The target of assay [3] is Cathepsin B (Homo sapiens, UniProt P07858). Put plainly: Cathepsin B inhibition, fluorogenic peptide substrate kinetic assay (selectivity).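 Also: value is the cathepsin B inhibition constant divided by the cathepsin S one, each from kinetic fluorescence readings (ex 380 nm, em 450 nm) of a 10 µM coumarin peptide substrate.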 Conditions: ratio of cathepsin B inhibition constant to cathepsin S inhibition constant.
The target in assay [4] is T1, Cathepsin K (Homo sapiens, UniProt P43235).
T1 sequence (P43235 115-329): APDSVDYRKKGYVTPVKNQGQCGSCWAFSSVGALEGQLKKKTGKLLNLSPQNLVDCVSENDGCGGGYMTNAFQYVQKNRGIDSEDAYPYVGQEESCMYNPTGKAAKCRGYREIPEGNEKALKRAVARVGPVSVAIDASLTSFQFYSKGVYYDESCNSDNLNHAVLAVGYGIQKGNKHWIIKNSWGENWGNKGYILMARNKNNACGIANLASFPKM
The assay can be described thus: Cathepsin K inhibition, fluorogenic peptide substrate kinetic assay (selectivity). The settings on record: ratio of cathepsin K inhibition constant to cathepsin S inhibition constant.

Where [5] appears, read: Cathepsin S inhibition constant, pH5.5, 20 minutes preincubation at room temperature, read-out: Ki Cat. S.

Like-named read-outs stand apart in the source and are kept apart here. A value given as a limit tells only on which side of the number the result lay.

Sequence of Cathepsin S (P25774 115-331, species assumed): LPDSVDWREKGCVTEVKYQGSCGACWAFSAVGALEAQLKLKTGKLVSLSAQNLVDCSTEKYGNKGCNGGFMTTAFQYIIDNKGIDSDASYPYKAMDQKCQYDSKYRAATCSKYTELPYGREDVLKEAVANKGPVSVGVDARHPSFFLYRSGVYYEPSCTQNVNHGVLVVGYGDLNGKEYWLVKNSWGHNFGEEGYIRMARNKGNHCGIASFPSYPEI
Sequence of Cathepsin L (P07711 114-333, species assumed): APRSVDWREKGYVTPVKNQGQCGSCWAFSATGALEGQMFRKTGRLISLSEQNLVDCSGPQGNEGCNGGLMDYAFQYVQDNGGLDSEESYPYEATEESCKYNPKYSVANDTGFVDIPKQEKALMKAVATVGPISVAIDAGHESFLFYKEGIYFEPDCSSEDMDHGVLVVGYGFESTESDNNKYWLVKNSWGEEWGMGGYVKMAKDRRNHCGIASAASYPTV

With `C[C@@H](CNc1ccc(OC(F)F)cc1)NC(=O)O[C@@H](CC(C)(C)C)C(=O)N1CCOCC1` [Example 85, [2-(4-Difluoromethoxy-phenylamino)-1-(S)-methyl-ethyl]-carbamic acid 3,3-dimethyl-1-(S)-(morpholine-4-carbonyl)-butyl ester], the “Selectivity for Cat. S over Cat. L” value in assay [1] is listed as “+ (+, >10)”. Moreover, the Ki in assay [2] (setting [5]) was 1000 to 10000 nM. In addition, the “Selectivity for Cat. S over Cat. B” value in assay [3] is “+ (+, >10)”.

`O=C(NCCN1CCc2cc(F)ccc21)[C@H](CC1CCCCC1)OC(=O)N1CCOCC1` [Example 1, Morpholine-4-carboxylic acid (S)-2-cyclohexyl-1-[2-(5-fluoro-2,3-dihydro-indol-1-yl)-ethylcarbamoyl]-ethyl ester]: the Ki in assay [2] (setting [5]) is 1000 to 10000 nM. The “Selectivity for Cat. S over Cat. B” value in assay [3] is “+ (+, >10)”.

Compound `O=C(N[C@@H](CCc1ccccc1)CNc1ccc(OC(F)(F)F)cc1)[C@@H](CC(=O)N1CCOCC1)c1ccccc1` [Example 40, 4-Morpholin-4-yl-4-oxo-2-(S)-phenyl-N-{3-phenyl-1-(S)-[(4-trifluoromethoxy-phenylamino)-methyl]-propyl}-butyramide] came in with an inhibition constant (Ki) in assay [2] below 100 nM.

`CS(=O)(=O)CC[C@H](CNc1ccc(OC(F)(F)F)cc1)NC(=O)[C@@H](CC(=O)N1CCOCC1)CC1CCCCC1` [Example 29, 2-(R)-Cyclohexylmethyl-N-{3-methanesulfonyl-1-(R)-[(4-trifluoromethoxy-phenylamino)-methyl]-propyl}-4-morpholin-4-yl-4-oxo-butyramide] had a Ki in assay [2] below 100 nM.

Compound `CC[C@@H](CNc1ccc(OC(F)(F)F)cc1)NC(=O)[C@H](CCc1ccccc1)CC(=O)N1CCOCC1` [Example 38, 4-Morpholin-4-yl-4-oxo-2-(R)-phenethyl-N-{1-(S)-[(4-trifluoromethoxy-phenylamino)-methyl]-propyl}-butyramide] displayed a Ki in assay [2] below 100 nM. Besides, the “Selectivity for Cat. S over Cat. B” value in assay [3] was “+++ (+++, >1000)”.

In assay [2], `O=C(N[C@H](CNc1ccc(OC(F)(F)F)cc1)c1ccccc1)[C@@H](CC(=O)N1CCOCC1)c1ccccc1` [Example 44, 4-Morpholin-4-yl-4-oxo-2-(S)-phenyl-N-[1-(S)-phenyl-2-(4-trifluoromethoxy-phenylamino)-ethyl]-butyramide] came in with an inhibition constant Ki of 100 to 1000 nM.

For the compound `CS(=O)(=O)CC[C@@H](CNc1ccc(OC(F)(F)F)cc1)NC(=O)[C@H](CC1CCCCC1)NC(=O)N1CCOCC1` [Example 74, Morpholine-4-carboxylic acid (2-cyclohexyl-1-(S)-{3-methanesulfonyl-1-(S)-[(4-trifluoromethoxy-phenylamino)-methyl]-propylcarbamoyl}-ethyl)-amide], the “Selectivity for Cat. S over Cat. K” value in assay [4] is on record as “+ (+, >10)”. Further, the inhibition constant (Ki) in assay [2] (setting [5]) is below 100 nM. Further, the “Selectivity for Cat. S over Cat. B” value in assay [3] is listed as “+ (+, >10)”.

In assay [2], `CC(C)[C@@H](CNc1ccc(OC(F)(F)F)cc1)NC(=O)[C@H](CCCc1ccccc1)CC(=O)N1CCOCC1` [Example 30, 2-(R)-(2-Morpholin-4-yl-2-oxo-ethyl)-5-phenyl-pentanoic acid {2-methyl-1-(S)-[(4-trifluoromethoxy-phenylamino)-methyl]-propyl}-amide] came in with an inhibition constant Ki below 100 nM.

As for `CC(C)[C@@H](CNc1ccc(OC(F)(F)F)cc1)NC(=O)[C@@H](CC(=O)N1CCOCC1)CC1CCCCC1` [Example 24, 2-(R)-Cyclohexylmethyl-N-{2-methyl-1-(S)-[(4-trifluoromethoxy-phenylamino)-methyl]-propyl}-4-morpholin-4-yl-4-oxo-butyramide], the inhibition constant (Ki) in assay [2] was below 100 nM.

For `CC(C)[C@@H](CNc1ccc(OC(F)(F)F)cc1)NC(=O)[C@@H](CC(=O)N1CCOCC1)CC1CCCC1` [Example 31, 2-(R)-Cyclopentylmethyl-N-{2-methyl-1-(S)-[(4-trifluoromethoxy-phenylamino)-methyl]-propyl}-4-morpholin-4-yl-4-oxo-butyramide], the Ki in assay [2] is below 100 nM.

With `C[C@@H]1CN(C(=O)[C@H](CC2CCCCC2)OC(=O)N[C@@H](C)CN2c3ccc(F)cc3CC2(C)C)C[C@H](C)O1` [Example 93, [2-(5-Fluoro-2,2-dimethyl-2,3-dihydro-indol-1-yl)-1-(S)-methyl-ethyl]-carbamic acid 1-(S)-cyclohexylmethyl-2-(2,6-cis-dimethyl-morpholin-4-yl)-2-oxo-ethyl ester], in assay [4], the “Selectivity for Cat. S over Cat. K” value is listed as “+ (+, >10)”. In assay [2] (setting [5]), the Ki was in the range of 1000 to 10000 nM. Moreover, the “Selectivity for Cat. S over Cat. B” value in assay [3] was “+ (+, >10)”.

For the compound `CS(=O)(=O)CC[C@@H](CNc1ccc(OC(F)(F)F)cc1)NC(=O)[C@@H](CC(=O)N1CCOCC1)CC1CCCCC1` [Example 28, 2-(R)-Cyclohexylmethyl-N-{3-methanesulfonyl-1-(S)-[(4-trifluoromethoxy-phenylamino)-methyl]-propyl}-4-morpholin-4-yl-4-oxo-butyramide], in assay [2], the inhibition constant Ki was below 100 nM.

On to `C[C@@H](CNc1nc2ccccc2s1)NC(=O)[C@H](CC1CCCCC1)NC(=O)N1CCOCC1` [Example 78, Morpholine-4-carboxylic acid {1-(S)-[2-(benzothiazol-2-ylamino)-1-(S)-methyl-ethylcarbamoyl]-2-cyclohexyl-ethyl}-amide], for which the “Selectivity for Cat. S over Cat. K” value in assay [4] is “+ (+, >10)”. In addition, the inhibition constant (Ki) in assay [2] (setting [5]) is 1000 to 10000 nM. Moreover, in assay [3], the “Selectivity for Cat. S over Cat. B” value was “+ (+, >10)”.

For the compound `O=C(N[C@H](CN1CC2(CC2)c2cc(F)ccc21)C1CC1)[C@H](CC1CCCCC1)NC(=O)N1CCOCC1` [Example 82, Morpholine-4-carboxylic acid {2-cyclohexyl-1-(S)-[1-(S)-cyclopropyl-2-(5-fluoro-3,3-spirocyclopropyl-2,3-dihydro-indol-1-yl)-ethylcarbamoyl]-ethyl}-amide], the “Selectivity for Cat. S over Cat. K” value in assay [4] is recorded as “++ (++, >100)”. The inhibition constant Ki in assay [2] (setting [5]) was below 100 nM. In addition, in assay [3], the “Selectivity for Cat. S over Cat. B” value is on record as “++ (++, >100)”.

For the compound `CC(C)[C@@H](CNc1cccnc1)NC(=O)[C@H](CC1CCCCC1)NC(=O)N1CCOCC1` [Example 76, Morpholine-4-carboxylic acid {2-cyclohexyl-1-(S)-[2-methyl-1-(S)-(pyridin-3-ylaminomethyl)-propylcarbamoyl]-ethyl}-amide], the “Selectivity for Cat. S over Cat. K” value in assay [4] is recorded as “+ (+, >10)”. Moreover, the Ki in assay [2] (setting [5]) was in the range of 100 to 1000 nM. For the same compound, the “Selectivity for Cat. S over Cat. B” value in assay [3] is given as “+ (+, >10)”.

As for `O=C(N[C@@H](CCc1ccccc1)CNc1ccc(OC(F)(F)F)cc1)[C@@H](CC(=O)N1CCOCC1)CC1CCCCC1` [Example 23, 2-(R)-Cyclohexylmethyl-4-morpholin-4-yl-4-oxo-N-{3-phenyl-1-(S)-[(4-trifluoromethoxy-phenylamino)-methyl]-propyl}-butyramide], the “Selectivity for Cat. S over Cat. K” value in assay [4] was “+ (+, >10)”. Moreover, the inhibitory constant (Ki) in assay [2] is below 100 nM. In assay [3], the “Selectivity for Cat. S over Cat. B” value is on record as “++ (++, >100)”.

As to `C[C@@H]1CN(C(=O)C[C@@H](CC2CCCCC2)C(=O)N[C@@H](C)CNc2ccc(OC(F)(F)F)cc2)C[C@H](C)O1` [Example 50, 2-(R)-Cyclohexylmethyl-4-(cis-2,6-dimethyl-morpholin-4-yl)-N-[1-(S)-methyl-2-(4-trifluoromethoxy-phenylamino)-ethyl]-4-oxo-butyramide], in assay [4], the “Selectivity for Cat. S over Cat. K” value is listed as “++ (++, >100)”. For the same compound, the inhibition constant Ki in assay [2] (setting [5]) was below 100 nM. The “Selectivity for Cat. S over Cat. B” value in assay [3] was “+++ (+++, >1000)”.

With `C[C@@H](CN1CC(C)(C)c2cc(F)ccc21)NC(=O)[C@@H](CC(=O)N1CCOCC1)c1ccc(C(F)(F)F)cc1` [Example 66, N-[2-(5-Fluoro-3,3-dimethyl-2,3-dihydro-indol-1-yl)-1-(S)-methyl-ethyl]-4-morpholin-4-yl-4-oxo-2-(S)-(4-trifluoromethyl-phenyl)-butyramide], the inhibition constant Ki in assay [2] (setting [5]) lay within 1000 to 10000 nM. Also, in assay [3], the “Selectivity for Cat. S over Cat. B” value was “+ (+, >10)”.

Take `CC(C)[C@@H](CNc1ccc(OC(F)(F)F)cc1)NC(=O)[C@H](CCC1CCCC1)CC(=O)N1CCOCC1` [Example 33, 2-(R)-(2-Cyclopentyl-ethyl)-N-{2-methyl-1-(S)-[(4-trifluoromethoxy-phenylamino)-methyl]-propyl}-4-morpholin-4-yl-4-oxo-butyramide]: in assay [2], the Ki was below 100 nM.

Regarding `C[C@@H](CNc1nc2ccccc2o1)NC(=O)[C@H](CC1CCCCC1)NC(=O)N1CCOCC1` [Example 79, Morpholine-4-carboxylic acid {1-(S)-[2-(benzooxazol-2-ylamino)-1-(S)-methyl-ethylcarbamoyl]-2-cyclohexyl-ethyl}-amide], in assay [4], the “Selectivity for Cat. S over Cat. K” value is “+ (+, >10)”. Besides, the inhibitory constant (Ki) in assay [2] (setting [5]) lay within 1000 to 10000 nM. In addition, in assay [3], the “Selectivity for Cat. S over Cat. B” value is given as “+ (+, >10)”.

For `C[C@@H](CNc1ccc(OC(F)(F)F)cc1)NC(=O)[C@H](CSCc1ccccc1)NC(=O)N1CCOCC1` [Example 17, Morpholine-4-carboxylic acid {2-benzylsulfanyl-1-(R)-[1-(S)-methyl-2-(4-trifluoromethoxy-phenylamino)-ethylcarbamoyl]-ethyl}-amide], the inhibition constant Ki in assay [2] (setting [5]) was below 100 nM.

In the case of `CC[C@@H](CNc1ccc(OC(F)(F)F)cc1)NC(=O)[C@H](CC1CCCCC1)NC(=O)N1CCOCC1` [Example 75, Morpholine-4-carboxylic acid (2-cyclohexyl-1(S)-{1-(S)-[(4-trifluoromethoxy-phenylamino)-methyl]-propylcarbamoyl}-ethyl)-amide], the “Selectivity for Cat. S over Cat. K” value in assay [4] is recorded as “+ (+, >10)”. For the same compound, the Ki in assay [2] (setting [5]) was below 100 nM. Further, in assay [3], the “Selectivity for Cat. S over Cat. B” value is “+ (+, >10)”.

The term Ki denotes a dissociation constant, usually derived from enzyme kinetics or from competition with a known ligand.
